Source: patent US9416353B2, “Covalent tethering of functional groups to proteins and substrates therefor” (Promega Corporation, priority 2004, dated 2016)

How the values were obtained:
[1] = target: hR.Luc-connector-DhaA.H272F-Flag (UniProt P0A3G2+P27652, H272F/T2A); type: cell-based; settings: Western blot, anti-R.Luc antibody
[2] = target: R.Luc-connector-DhaA.H272F (UniProt P0A3G2+P27652, H272F/T2A); type: binding; settings: pretreatment with non-biotinylated substrate

`O=C(CCCC[C@@H]1SC[C@@H]2NC(=O)N[C@@H]21)NCCOCCOCCCCCCCl` [biotin-C10H21NO2—Cl, N-{2-[2-(6-Chlorohexyloxy)-ethoxy]ethyl}-biotin-amide] was tested, and the “hR.Luc-connector-DhaA.H272F-Flag fusion protein captured” value [1] was “more than 50%”.
For “N-{2-[2-(6-Chlorohexyloxy)-ethoxy]-ethyl}-tetramethylrhodamine-5-(and -6)-amide”, the “decrease of the efficiency of capturing” value [2] was “about 80%”.
